Measurements as given in PubChem BioAssay (NCI).
Values joined by “and” are separate entries in the source; they are usually repeats but may differ in a detail not shown here. Equal values may be shown once.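 Compound exposure: 48 hours, 5 concentrations, 96-well plates. GI50 marks 50% less growth. The concentration for full growth arrest is given as TGI.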

Key:
Test in all cases: inhibition of tumour cell growth, NCI panel, 48 h
ACHN renal = system: ACHN renal
CAKI-1 renal = system: CAKI-1 renal
IGROV1 ovarian = system: IGROV1 ovarian
RPMI-8226 leukemia = system: RPMI-8226 leukemia
RXF 393 renal = system: RXF 393 renal
SK-MEL-5 melanoma = system: SK-MEL-5 melanoma
SNB-75 CNS = system: SNB-75 CNS
UACC-257 melanoma = system: UACC-257 melanoma
SF-295 CNS = system: SF-295 CNS
SR leukemia = system: SR leukemia

Compound | GI50 (ACHN renal) | TGI (ACHN renal) | GI50 (CAKI-1 renal) | TGI (CAKI-1 renal) | GI50 (IGROV1 ovarian) | TGI (IGROV1 ovarian) | GI50 (RPMI-8226 leukemia) | TGI (RPMI-8226 leukemia) | GI50 (RXF 393 renal) | TGI (RXF 393 renal) | GI50 (SK-MEL-5 melanoma) | TGI (SK-MEL-5 melanoma) | GI50 (SNB-75 CNS) | TGI (SNB-75 CNS) | GI50 (UACC-257 melanoma) | TGI (UACC-257 melanoma) | TGI (SF-295 CNS) [µM] | TGI (SR leukemia) [µM] | GI50 (SF-295 CNS) [µM] | GI50 (SR leukemia) [µM]
COC(C)(C)C/C=C/C(C)=C/C=C/C(C)=C\C=C\C(C)=C\C=C\C=C(C)\C=C\C=C(C)\C=C\C=C(C)\C=C\CC(C)(C)OC | > 150 µg/mL | > 150 µg/mL | > 150 µg/mL | > 150 µg/mL | > 150 µg/mL | > 150 µg/mL | > 150 µg/mL | > 150 µg/mL | > 150 µg/mL | > 150 µg/mL | > 150 µg/mL | > 150 µg/mL | > 150 µg/mL | > 150 µg/mL | > 150 µg/mL | > 150 µg/mL |  |  |  | 
O=c1cccccc1[O-].O=c1cccccc1[O-].O=c1cccccc1[O-].[La+3] |  | > 100 µM |  | > 100 µM |  | 75.8 µM |  | > 100 µM |  | 31.9 µM |  | 22.4 µM |  |  |  | 47.9 µM | 39.6 |  |  | 
O=Cc1c(O)c(C(=O)Nc2ccc3[nH]c(=O)[nH]c3c2)cc2ccccc12 |  | > 100 µM |  | > 100 µM |  | > 100 µM |  | > 100 µM |  | > 100 µM |  | > 100 µM |  | > 100 µM |  | > 100 µM | > 100 |  |  | 
Nc1nc2c3nc(Nc4ccccc4)sc3nc(=O)n2c2sc(Nc3ccccc3)nc12 |  | > 100 µM |  |  |  | > 100 µM |  | > 100 µM |  | > 100 µM |  | > 100 µM |  | > 100 µM |  | > 100 µM | > 100 | > 100 |  | 
COC(=O)CC[C@H](Cc1ccccc1)NC(=O)c1csc([C@@H](C[C@H](C(C)C)N(C)C(=O)[C@@H](NC(=O)[C@H]2CCCCN2C)C(C)C)OC(C)=O)n1 | 0.013 µM | 21.4 µM |  |  | 0.00331 µM | > 25 µM | < 0.0025 µM | > 25 µM | < 0.0025 µM | > 25 µM | < 0.0025 µM | 0.0984 µM | < 0.0025 µM | > 25 µM | > 25 µM | > 25 µM | > 25 | > 8.5 | < 0.0025 | < 0.0025
COC(=O)[C@@H](C)C[C@H](Cc1ccccc1)NC(=O)c1csc([C@@H](C[C@H](C(C)C)N(C)C(=O)[C@@H](NC(=O)[C@H]2CCCCN2C)C2CC2)OC(C)=O)n1 | 0.00104 µM and 0.00165 µM | > 16.5 µM | 0.00577 µM |  | 0.00104 µM and 0.00165 µM | > 16.5 µM | 0.000225 µM and 0.00165 µM | > 16.5 µM |  |  |  | 0.0138 µM and 0.00203 µM | 0.000383 µM and 0.00165 µM | > 16.5 µM |  |  | 0.00369 | > 16.5 | 0.000345 | 
CCOc1ccc2nc(NC(=O)C(=O)C(c3cnc4ccccc4n3)[N+](=O)[O-])sc2c1 (configuration not stated) |  | > 100 µM |  | > 100 µM |  | > 100 µM |  | > 100 µM |  | > 100 µM |  | > 100 µM |  | > 100 µM |  | > 100 µM | > 100 |  |  | 
CN(C)c1ccc(/C=c2\sc3nc4ccccc4n3c2=O)cc1 |  | > 100 µM |  | > 100 µM |  | > 100 µM |  |  |  | > 100 µM |  | > 100 µM |  | > 100 µM |  | > 100 µM | > 100 |  |  | 
CC(C)OP(=O)(NC(=S)c1ccccc1)OC(C)C |  | > 100 µM |  | > 100 µM |  | > 100 µM |  |  |  |  |  | > 100 µM |  | > 100 µM |  | > 100 µM | > 100 |  |  | 
